Assay results from the Kinase Knowledgebase extract (Sharma et al. 2016).

Key:
[1] = target: MAPK14 (UniProt Q16539); test: CSBP Kinase Inhibition
[2] = target: MAPK14 (UniProt Q16539); test: CSBP Binding Inhibition

Sequence of MAPK14 (Q16539 whole entry, looked up): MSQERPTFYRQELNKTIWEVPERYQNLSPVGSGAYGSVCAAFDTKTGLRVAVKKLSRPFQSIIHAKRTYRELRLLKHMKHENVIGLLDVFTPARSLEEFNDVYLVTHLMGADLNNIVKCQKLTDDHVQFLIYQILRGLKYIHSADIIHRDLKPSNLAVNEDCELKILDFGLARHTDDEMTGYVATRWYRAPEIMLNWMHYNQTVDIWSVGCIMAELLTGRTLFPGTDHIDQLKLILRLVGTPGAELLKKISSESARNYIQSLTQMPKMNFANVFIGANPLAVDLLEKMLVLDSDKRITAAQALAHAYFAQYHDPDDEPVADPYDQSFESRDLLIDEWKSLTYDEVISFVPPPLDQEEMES

IC50 [1] [µM]	IC50 [2] [µM]	SMILES
< 50		COc1nccc(-c2c(-c3ccc(F)cc3)ncn2[C@H]2CC[C@@](C)(O)CC2)n1
< 50		CCCC(=O)O[C@H]1CC[C@H](n2cnc(-c3ccc(F)cc3)c2-c2ccnc(OC)n2)CC1
	< 50	CSc1nccc(-c2c(-c3ccc(F)cc3)ncn2[C@H]2CC[C@H](O)CC2)n1
	< 50	COc1nccc(-c2c(-c3ccc(F)cc3)ncn2C2CCC(=O)CC2)n1
	< 50	CC(C)Oc1nccc(-c2c(-c3ccc(F)cc3)ncn2C2CCC(=O)CC2)n1
< 50		COc1nccc(-c2c(-c3ccc(F)cc3)ncn2[C@H]2CC[C@@](O)(CO)CC2)n1.COc1nccc(-c2c(-c3ccc(F)cc3)ncn2[C@H]2CC[C@](O)(CO)CC2)n1
< 50		COc1nccc(-c2c(-c3ccc(F)cc3)ncn2[C@H]2CC[C@@H](N)CC2)n1
	< 50	O=C1CCC(n2cnc(-c3ccc(F)cc3)c2-c2ccnc(O)n2)CC1
< 50		COc1nccc(-c2c(-c3ccc(F)cc3)ncn2[C@H]2CC[C@H](OC3CCCCO3)CC2)n1 (stereo not given in full)
< 50		COc1nccc(-c2c(-c3ccc(F)cc3)ncn2[C@H]2CC[C@](C)(O)CC2)n1
	< 50	CC(C)Oc1nccc(-c2c(-c3ccc(F)cc3)ncn2C2CCC(O)CC2)n1 (stereo not given)
< 50		COc1nccc(-c2c(-c3ccc(F)cc3)ncn2[C@H]2CC[C@H](N)CC2)n1
	< 50	COc1nccc(-c2c(-c3ccc(F)cc3)ncn2[C@H]2CC[C@@](C)(O)CC2)n1.COc1nccc(-c2c(-c3ccc(F)cc3)ncn2[C@H]2CC[C@](C)(O)CC2)n1
< 50		Oc1nccc(-c2c(-c3ccc(F)cc3)ncn2C2CCC(O)CC2)n1 (stereo not given)
	< 50	CSc1nccc(-c2c(-c3ccc(F)cc3)ncn2C2CCC(=O)CC2)n1
